From patent US20190053492A1, “SUBSTITUTED PYRIDINE COMPOUNDS AS PESTICIDES” (Bayer CropScience Aktiengesellschaft, priority 2016, published 2019)
Like-named read-outs stand apart in the source and are kept apart here.

How the values were obtained:
[1] = test system: Spodoptera frugiperda; assay: Spodoptera frugiperda spray test; assay type: in vivo; details: application rate 500 g/ha, after 7 days, maize leaf discs
Experimental: Spodoptera frugiperda—Spray Test
Solvent: 78.0 parts by weight of acetone • • 1.5 parts by weight of dimethylformamide
Emulsifier: alkylaryl polyglycol ether
To produce a suitable active ingredient formulation, 1 part by weight of active ingredient is dissolved with the specified parts by weight of solvent and made up with water containing an emulsifier concentration of 1000 ppm until the desired concentration is attained. To produce further test concentrations, the formulation is diluted with emulsifier-containing water.
Leaf discs of maize (Zea mays) are sprayed with an active ingredient formulation of the desired concentration and, after drying, populated with caterpillars of the armyworm (Spodoptera frugiperda).
After 7 days, the efficacy in % is determined. 100% means that all the caterpillars have been killed; 0% means that no caterpillar has been killed.

[2] = log P by HPLC on reversed-phase column (C 18), EEC Directive 79/831 Annex V.A8; assay type: physicochemical; details: 55° C.; for LOGP_HCOOH: log P (HCOOH); for chromatographic logP: reversed-phase HPLC column (C 18)
Experimental: Temperature: 55° C. […] Called log P (HCOOH) in the table. […] Called log P (neutral) in the table.

[3] = acidic range at pH 2.7, 0.1% aqueous formic acid and acetonitrile, HPLC on reversed-phase column (C 18)
[4] = log P, neutral range, HPLC on reversed-phase column (C 18)
[5] = pH 2.7, LC-MS acidic range, pH 2.7, 0.1% formic acid/acetonitrile, read-out: log P (acidic) / log P (HCOOH)
[6] = pH 7.8, LC-MS neutral range, pH 7.8, ammonium hydrogencarbonate/acetonitrile, read-out: log P (neutral)
[7] = acidic range pH 2.7, 0.1% aqueous formic acid and acetonitrile, reversed-phase column (C 18)

Row | Compound | LOGP_NEUTRAL [2, 4] | chromatographic logP [2, 5] | chromatographic logP [2, 6] | LOGP_HCOOH [2, 7] | further results
1 | CC(NC(=O)c1cc(-c2ccc(OC(F)(F)F)cc2)cc(NC(=O)C2CC2)n1)c1ccc(C#N)cc1 (single isomer, unassigned) [Example I-219] | 4.02 | – | – | – | efficacy (caterpillars killed) [1]: 83%; LOGP_HCOOH [2, 3]: 4.17
2 | O=C(O)c1cc(-c2ccc(OC(F)(F)F)cc2)cc(NC(=O)C2CC2)n1 [6-[(Cyclopropylcarbonyl)amino]-4-[4-(trifluoromethoxy)phenyl]pyridine-2-carboxylic acid] | – | 2.72 | 1.25 | – | –
3 | N#Cc1cccc(CNC(=O)c2cc(-c3ccc(F)cc3)cc(NC(=O)C3CC3)n2)c1 [Example I-001] | – | – | – | 3.26 | –
4 | O=C(NCc1cccc(F)c1)c1cc(-c2ccc(C(F)(F)F)cc2)cc(NC(=O)C2CC2)n1 [Example I-003] | – | – | – | 4.24 | efficacy (caterpillars killed) [1]: 83%
5 | O=C(NCc1cccc(Cl)c1)c1cc(-c2ccc(C(F)(F)F)cc2)cc(NC(=O)C2CC2)n1 [Example I-006] | 4.43 | – | – | 4.49 | efficacy (caterpillars killed) [1]: 100%
6 | O=C(NCc1ccc(Cl)cc1Cl)c1cc(-c2ccc(C(F)(F)F)cc2)cc(NC(=O)C2CC2)n1 [Example I-010] | 4.89 | – | – | 5.00 | efficacy (caterpillars killed) [1]: 100%
7 | CC(C)C(=O)Nc1cc(-c2ccc(C(F)(F)F)cc2)cc(C(=O)NCc2ccc(Cl)nc2)n1 [Example I-014] | 3.81 | – | – | 3.88 | efficacy (caterpillars killed) [1]: 80%
8 | N#Cc1ccc(CNC(=O)c2cc(-c3ccc(C(F)(F)F)cc3)cc(NC(=O)c3ccc(Cl)cc3)n2)cc1 [Example I-023] | 4.66 | – | – | 4.77 | efficacy (caterpillars killed) [1]: 83%
9 | N#Cc1ccc(CNC(=O)c2cc(-c3ccc(OC(F)F)cc3)cc(NC(=O)C3CC3)n2)cc1 [Example I-029] | 3.21 | – | – | 3.28 | efficacy (caterpillars killed) [1]: 83%
10 | CC(C)CNC(=O)c1cc(-c2ccc(C(F)(F)F)cc2)cc(NC(=O)C2CC2)n1 [Example I-032] | 3.98 | – | – | 4.06 | efficacy (caterpillars killed) [1]: 100%
11 | O=C(NC1CCC1)c1cc(-c2ccc(C(F)(F)F)cc2)cc(NC(=O)C2CC2)n1 [Example I-033] | 3.80 | – | – | 3.88 | efficacy (caterpillars killed) [1]: 100%
12 | CN(C(=O)c1cc(-c2ccc(C(F)(F)F)cc2)cc(NC(=O)C2CC2)n1)c1cccnc1 [Example I-034] | 2.72 | – | – | 2.73 | efficacy (caterpillars killed) [1]: 100%
13 | N#Cc1ccc(CCNC(=O)c2cc(-c3ccc(C(F)(F)F)cc3)cc(NC(=O)C3CC3)n2)cc1 [Example I-046] | 3.76 | – | – | 3.80 | efficacy (caterpillars killed) [1]: 83%
14 | N#Cc1ccc(CNC(=O)c2cc(-c3ccc(C(F)(F)F)cc3)cc(NC(=O)c3ccccc3Cl)n2)cc1 [Example I-047] | 4.15 | – | – | 4.26 | efficacy (caterpillars killed) [1]: 83%
15 | CC(C)C(=O)Nc1cc(-c2ccc(C(F)(F)F)cc2)cc(C(=O)NCc2cc(F)c(C#N)c(F)c2)n1 [Example I-072] | 4.04 | – | – | 4.23 | –
16 | O=C(NC1CCCCC1)c1cc(-c2ccc(OC(F)(F)F)cc2)cc(NC(=O)C2CC2)n1 [Example I-168] | 4.57 | – | – | – | LOGP_HCOOH [2, 3]: 4.74
17 | N#Cc1ccc(CNC(=O)c2cc(-c3ccc(OC(F)=C(F)F)cc3)cc(NC(=O)C3CC3)n2)cc1 [Example I-171] | 3.82 | – | – | – | LOGP_HCOOH [2, 3]: 3.96
18 | CON(C)C(=O)c1cc(-c2ccc(OC(F)(F)F)cc2)cc(NC(=O)C2CC2)n1 [Example I-183] | 3.18 | – | – | – | LOGP_HCOOH [2, 3]: 3.22
19 | N#CC1CCN(C(=O)c2cc(-c3ccc(OC(F)(F)F)cc3)cc(NC(=O)C3CC3)n2)CC1 [Example I-199] | – | – | – | – | LOGP_HCOOH [2, 3]: 3.21
20 | N#Cc1ccc(CNC(=O)c2cc(-c3ccc(OC(F)(F)F)cc3)cc(NC(=O)C3(C4CC4)CC3)n2)cc1 [Example I-203] | 3.32 | – | – | – | –
21 | N#Cc1ccc(CNC(=O)c2cc(-c3ccc(C(F)(F)C(F)(F)F)c(F)c3Cl)cc(NC(=O)C3CC3)n2)cc1 [Example I-266] | – | – | – | 4.34 | –

Row | Compound | LOGP_NEUTRAL [2, 4] | chromatographic logP [2, 5] | chromatographic logP [2, 6] | LOGP_HCOOH [2, 7] | further results
22 | Cc1cc(-c2cc(NC(=O)C3CC3)nc(C(=O)NCc3ccc(C#N)cc3)c2)cc(F)c1C(F)(F)C(F)(F)F [Example I-267] | – | – | – | 4.45 | –
23 | N#Cc1ccc(CNC(=O)c2cc(-c3cc(F)c(C(F)(F)C(F)(F)F)cc3F)cc(NC(=O)C3CC3)n2)cc1 [Example I-275] | – | – | – | 4.11 | –
24 | N#Cc1ccc(CNC(=O)c2cc(-c3cc(F)c(C(F)(F)C(F)(F)F)c(Cl)c3)cc(NC(=O)C3CC3)n2)cc1 [Example I-278] | – | – | – | 4.67 | LOGP_NEUTRAL ([2]; log P (neutral), HPLC reversed-phase column (C 18)): 4.52
25 | N#Cc1ccc(CNC(=O)c2cc(B(O)O)cc(NC(=O)C3CC3)n2)cc1 [Example X-1b, {2-[(4-Cyanobenzyl)carbamoyl]-6-[(cyclopropylcarbonyl)amino]pyridin-4-yl}boric acid] | – | 1.58 | 1.25 | – | –
26 | FC(F)(F)Oc1ccc(-c2cc(Cl)nc(Cl)c2)cc1 [XIV-1, 2,6-Dichloro-4-[4-(trifluoromethoxy)phenyl]pyridine] | – | 4.63 | 4.62 | – | –
27 | Fc1cc(-c2cc(Cl)nc(Cl)c2)ccc1C(F)(F)C(F)(F)F [XIV-2, 2,6-Dichloro-4-[3-fluoro-4-(pentafluoroethyl)phenyl]pyridine] | – | 4.92 | 4.97 | – | –
28 | Nc1cc(-c2ccc(Cl)cc2)cc(C(=O)O)n1 [XIX-1, 6-Amino-4-(4-chlorophenyl)pyridine-2-carboxylic acid] | – | 1.02 | – | – | –
29 | C=Cc1cc(-c2ccc(OC(F)(F)F)cc2)cc(Cl)n1 [XV-1, 2-Chloro-4-[4-(trifluoromethoxy)phenyl]-6-vinylpyridine] | – | 4.77 | 4.72 | – | –
30 | O=C(O)c1cc(-c2ccc(OC(F)(F)F)cc2)cc(Cl)n1 [XVI-1, 6-Chloro-4-[4-(trifluoromethoxy)phenyl]pyridine-2-carboxylic acid] | – | 3 | 1.17 | – | –
31 | N#Cc1ccc(CNC(=O)c2cc(-c3ccc(OC(F)(F)F)cc3)cc(Cl)n2)cc1 [XVII-1, 6-Chloro-N-(4-cyanobenzyl)-4-[4-(trifluoromethoxy)phenyl]pyridine-2-carboxamide] | – | 4.23 | 4.19 | – | –
32 | CNc1cc(-c2ccc(OC(F)(F)F)cc2)cc(C(=O)NCc2ccc(C#N)cc2)n1 [XVIII-1, N-(4-Cyanobenzyl)-6-(methylamino)-4-[4-(trifluoromethoxy)phenyl]pyridine-2-carboxamide] | – | 3.63 | 3.63 | – | –
33 | N#Cc1ccc(CNC(=O)c2cc(-c3ccc(Cl)cc3)cc(N)n2)cc1 [XX-1, 6-Amino-4-(4-chlorophenyl)-N-(4-cyanobenzyl)pyridine-2-carboxamide] | – | – | 2.82 | – | –
34 | CN(C(=O)c1cc(-c2ccc(C(F)(F)F)cc2)cc(N)n1)C1CC1 [XX-2, 6-Amino-N-cyclopropyl-N-methyl-4-[4-(trifluoromethyl)phenyl]pyridine-2-carboxamide] | – | – | 2.4 | – | –
35 | N#Cc1ccc(CNC(=O)c2cc(-c3ccc(C(F)(F)F)cc3)cc(N)n2)cc1F [XX-3, 6-Amino-N-(4-cyano-3-fluorobenzyl)-4-[4-(trifluoromethyl)phenyl]pyridine-2-carboxamide] | – | – | 3.19 | – | –
36 | Nc1cc(-c2ccc(C(F)(F)C(F)(F)F)c(F)c2)cc(Cl)n1 [XXI-1, 6-Chloro-4-[3-fluoro-4-(pentafluoroethyl)phenyl]pyridin-2-amine] | – | 3.85 | 3.83 | – | –
37 | O=C(Nc1cc(-c2ccc(C(F)(F)C(F)(F)F)c(F)c2)cc(Cl)n1)C1CC1 [XXII-1, N-{6-Chloro-4-[3-fluoro-4-(pentafluoroethyl)phenyl]pyridin-2-yl}cyclopropanecarboxamide] | – | 4.76 | 4.64 | – | –
38 | NC(=O)c1cc(-c2ccc(C(F)(F)C(F)(F)F)c(F)c2)cc(NC(=O)C2CC2)n1 [XXIII-1, 6-[(Cyclopropylcarbonyl)amino]-4-[3-fluoro-4-(pentafluoroethyl)phenyl]pyridine-2-carboxamide] | – | 3.18 | 3.17 | – | –
39 | COC(=O)c1cc(-c2ccc(OC(F)(F)F)cc2)cc(NC(=O)C2CC2)n1 [XXIII-2, Methyl 6-[(cyclopropylcarbonyl)amino]-4-[4-(trifluoromethoxy)phenyl]pyridine-2-carboxylate] | – | 3.63 | 3.54 | – | –
40 | NNC(=O)c1cc(-c2ccc(OC(F)(F)F)cc2)cc(NC(=O)C2CC2)n1 [XXIV-1, N-{6-(Hydrazinocarbonyl)-4-[4-(trifluoromethoxy)phenyl]pyridin-2-yl}cyclopropanecarboxamide] | – | 2.57 | 2.55 | – | –
41 | N#Cc1cc(-c2ccc(OC(F)(F)F)cc2)cc(NC(=O)C2CC2)n1 [XXIX-1, N-{6-Cyano-4-[4-(trifluoromethoxy)phenyl]pyridin-2-yl}cyclopropanecarboxamide] | – | 3.85 | 3.89 | – | –
